Measurements: patent US4551273A, “Analgesic peptide and process for the preparation thereof” (Eisai Co., Ltd., priority 1983, dated 1985)

Legend:
[1] = test system: guinea pig longitudinal muscle of ileum; test: Assay with guinea pig longitudinal muscle of ileum (inhibition of electrically stimulated contraction); assay type: tissue-based
Method: (A) Assay with guinea pig longitudinal muscle of ileum
This assay was carried out according to the method reported by H. W. Kosterlitz et al. A mature guinea pig was sacrificed by cutting its jugular and subjected to an abdominal operation to take out its ileum as a piece of 40 to 50 cm in length from a region 15 to 20 cm apart from the ileocecal region. Then it was immediately introduced into Ringer's solution and cut into 10 cm portions. The longitudinal muscle was peeled off from each piece by using a scalpel and an applicator, wound with a string and suspended in an isothermal glass cell of 6 ml in volume. Subsequently it was stimulated electrically (0.1 Hz, 0.5 ms, 80-90 V) with platinum electrodes fitted at the upper and lower sides of the cell to record the resulting contractions through a transducer.
H. W. Kosterlitz, A. A. Waterfield: Annu. Rev. Pharmacol., 15, 29 (1975).

mouse vas deferens = test: Assay with mouse vas deferens (inhibition of electrically stimulated contraction); design: species or system isolated tissue
Method: (B) Assay with mouse vas deferens
This assay was carried out according to the method reported by Hughes et al. A mature male mouse was decapitated and phlebotomized. Then it was immediately subjected to an abdominal operation to take out its right and left vas deferens. Sperm clogged in the ducts was forced out with a pincette in Ringer's solution and both ends of the two ducts were united with a string to form a ring. Then it was stimulated electrically (0.1 Hz, 1 ms, 90 V) in the same manner as described in (A).
Hughes H. W., Kosterlitz H. W., Leslie F. M.: Br. J. Pharmacol., 53, 371 (1975).

[2] = test system: writhing syndrome in ddY male mouse; test: Acetic acid writhing assay; assay type: in vivo; settings: for ED50, Method (A), intravenous / ED50, Method (A), intraventricular: mouse; for ED50, Method (A), intravenous: intravenous (tail vein) administration, acetic acid 10 min after sample; for ED50, Method (A), intraventricular: intraventricular administration, acetic acid 5 min after sample
Method: (§1) The following two methods (A) and (B) were employed to examine the analgesic effects of the sample resulting from intravenous or intraventricular administration.
(§2) The sample and control were injected to the tail vein in the case of intravenous administration and to the side cerebral ventricle in the case of intraventricular administration according to a method reported by Haley and McCormick(1).
(A) Acetic acid writhing assay
0.1 ml/10 g of a 0.7% solution of acetic acid was administered to a ddY male mouse of 20 to 26 g in body weight by an intraabdominal injection to examine the inhibiting effect on writhing syndrome which was mainly observed as a stretching of the hind legs as an indication of the analgesic effect. Acetic acid was administered intraabdominally five min after the intraventricular administration and 10 min after the intravenous administration of the sample. Then the resulting writhing syndromes were counted for 15 min.

[3] = test system: biting response induced by pinching the mouse tail; test: Tail pinch assay; assay type: in vivo; settings: intraventricular administration
Method: as §1, §2
Response time had been previously determined by a pressure stimulation to select the mice which had responded within 3 sec for the experiment. According to a method reported by Takagi et al.(3), the degree of pain was scored in the following three stages depending on the response time; 0 (shorter than four sec), 1 (four to eight sec), 2 (longer than eight sec). The analgesic effect was calculated by the following equation: [formula]

[4] = peptide purified from pig duodenum; cited from earlier work
[5] = administered intraventricularly; cited from earlier work
kappa-receptor = kappa-receptor (Homo sapiens, UniProt P41145); settings: subclass of opiate receptor; different from the μ-receptor; cited from earlier work
Sequence of kappa-receptor (P41145 whole entry): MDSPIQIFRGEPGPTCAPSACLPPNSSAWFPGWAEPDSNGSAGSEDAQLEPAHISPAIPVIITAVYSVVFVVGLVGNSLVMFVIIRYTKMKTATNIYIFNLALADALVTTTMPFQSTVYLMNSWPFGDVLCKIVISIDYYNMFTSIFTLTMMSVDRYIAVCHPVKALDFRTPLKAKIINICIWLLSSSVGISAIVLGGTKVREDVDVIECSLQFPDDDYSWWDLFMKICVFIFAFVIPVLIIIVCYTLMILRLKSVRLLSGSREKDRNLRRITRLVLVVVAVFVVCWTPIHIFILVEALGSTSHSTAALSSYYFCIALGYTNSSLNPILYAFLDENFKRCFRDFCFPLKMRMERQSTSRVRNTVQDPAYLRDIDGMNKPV

In the case of `CC[C@@H](C)[C@@H](NC(=O)[C@H](CCCNC(=N)N)NC(=O)[C@H](CCCNC(=N)N)NC(=O)[C@H](CC(C)C)NC(=O)[C@H](Cc1ccccc1)NC(=O)CNC(=O)CNC(=O)[C@H](Cc1ccc(O)cc1)NC)C(=O)N[C@@H](CCCNC(=N)N)C(=O)N1CCC[C@H]1C(=O)N[C@@H](CCCCN)C(=O)N[C@H](CC(C)C)C(=O)N[C@@H](CCCCN)C(=O)N[C@@H](Cc1c[nH]c2ccccc12)C(N)=O` [Compound of the present invention, N-Me-Tyr-Gly-Gly-Phe-Leu-Arg-Arg-D.Ile-Arg-Pro-Lys-D.Leu-Lys-Trp-NH2], the IC50 ([1]; concentration required to decrease electrically stimulated contraction to 50%, guinea pig ileum longitudinal muscle, read-out: IC50, Method (A)) is reported as 0.35 ± 0.2 nM, the “inhibition of contraction, fold as highly as morphine” value ([1]; guinea pig longitudinal muscle of ileum, relative to morphine) is reported as “approximately 270 fold” and the IC50 (mouse vas deferens; concentration required to decrease electrically stimulated contraction to 50%, read-out: IC50, Method (B)) is reported as 1.1 ± 0.4 nM. The “inhibition of contraction, fold as highly as morphine” value (mouse vas deferens; relative to morphine) was “approximately 970 fold”, the “analgesic effect compared with morphine on a molar basis” value ([2]; intravenous administration) was “higher than that of morphine” and the “ED50, Method (A), intravenous” value [2] was 3.4 nmol/head. For the same compound, the “ED50, Method (A), intraventricular” value [2] was 0.017 nmol/head and the “ED50, Method (B), intraventricular” value [3] was 0.017 nmol/head.
For `CN1CC[C@]23c4c5ccc(O)c4O[C@H]2[C@@H](O)C=C[C@H]3[C@H]1C5` [Morphine, reference compound], the “ED50, Method (A), intravenous” value [2] was 32 nmol/head, the “ED50, Method (A), intraventricular” value [2] was 0.63 nmol/head and the “ED50, Method (B), intraventricular” value [3] was 0.24 nmol/head.
In the case of “Tyr-Gly-Gly-Phe-Leu-Arg-Arg-Ile-Arg-Pro-Lys-Leu-Lys-Trp-Asp-Asp-Gln (YGGFLRRIRPKLKWDDQ; printed: Tyr-Gly-Gly-Phe-Leu-Arg-Arg-Ile-Arg-Pro-Lys-Leu-Lys-Trp-Asp-Asp-Gln) [prototype peptide, opioid peptide from pig duodenum, found earlier by some of the inventors; called prototype peptide in b11]”, the “morphine-like activity relative to morphine” value [4] is given as “several hundred times as high as morphine”, the analgesic effect [5] is given as “high analgesic effect” and the receptor selectivity (kappa-receptor) is given as “combined selectively with a kappa-receptor”.
